# From patent US20220281848A1, “PYRAZOLE-SUBSTITUTED PYRROLIDINONES AS HERBICIDES” (FMC Corporation, priority 2019, published 2022)
# How the values were obtained:
# Assay type in all cases: in vivo
# Conditions in all cases: after 13 d
# [1] = system: velvetleaf (Abutilon theophrasti, ABUTH); assay: Test A pre-emergence, velvetleaf
# In short: (§1)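 Values are percent plant damage 13 d after a pre-emergence spray (15.625, 62.5 or 250 g/ha; acetone/water with 0.5% Tween 20) applied to pots one day post-sowing, under glasshouse conditions of 24/16° C. and twice-daily watering.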
# corn (Zea mays, ZEAMX) = assay: Test A post-emergence, corn
# In short: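 Post-emergence spray at 8 d after sowing; doses 15.625, 62.5 or 250 g/ha in acetone/water 50:50 + 0.5% Tween 20. Glasshouse 24/16 °C, 14 h light, 65% RH, watered twice daily. Visual damage rating 0–100 at 13 d.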
# [2] = system: barnyardgrass (Echinochloa crus-galli, ECHCG); assay: Test A pre-emergence, barnyardgrass
# In short: as §1
# [3] = system: ivy-leaved morning glory (Ipomoea hederacea, IPOHE); assay: Test A pre-emergence, ivy-leaved morning glory
# In short: as §1
Structure (SMILES),damage to plant (100=total damage; 0=no damage) ABUTH ([1]; Pre-Emergence at 15.625 g/ha),damage to plant (100=total damage; 0=no damage) ABUTH ([1]; Pre-Emergence at 62.5 g/ha),damage to plant (100=total damage; 0=no damage) ABUTH ([1]; Pre-Emergence at 250 g/ha),"damage to plant (100=total damage; 0=no damage) ZEAMX (corn (Zea mays, ZEAMX); Post-Emergence at 15.625 g/ha)","damage to plant (100=total damage; 0=no damage) ZEAMX (corn (Zea mays, ZEAMX); Post-Emergence at 62.5 g/ha)","damage to plant (100=total damage; 0=no damage) ZEAMX (corn (Zea mays, ZEAMX); Post-Emergence at 250 g/ha)",damage to plant (100=total damage; 0=no damage) ECHCG ([2]; Pre-Emergence at 15.625 g/ha),damage to plant (100=total damage; 0=no damage) ECHCG ([2]; Pre-Emergence at 62.5 g/ha),damage to plant (100=total damage; 0=no damage) ECHCG ([2]; Pre-Emergence at 250 g/ha),damage to plant (100=total damage; 0=no damage) IPOHE ([3]; Pre-Emergence at 15.625 g/ha),damage to plant (100=total damage; 0=no damage) IPOHE ([3]; Pre-Emergence at 62.5 g/ha),damage to plant (100=total damage; 0=no damage) IPOHE ([3]; Pre-Emergence at 250 g/ha)
CN1CC(c2cc(C(F)(F)F)n(C)n2)C(C(=O)Nc2ccccc2F)C1=O (racemic) [Compound 9],0,0,0,20,0,50,80,90,90,50,0,0
CN1CC(c2cnn(C)c2C(F)(F)F)C(C(=O)Nc2cccc(F)c2F)C1=O (racemic) [Compound 25],0,10,40,0,20,30,90,100,100,0,0,0
CN1CC(c2cc(Cl)n(C)n2)C(C(=O)Nc2ccc(F)c(F)c2F)C1=O (racemic) [Compound 31],0,0,0,0,0,0,60,80,80,0,0,10
CCn1nc([C@H]2CN(C)C(=O)[C@@H]2C(=O)Nc2cccc(F)c2F)c2ccc(F)cc21 [Compound 4],0,0,0,20,50,90,90,90,100,0,10,70
